Two molecules from paper PMC11476552, “Synthesis and Preliminary Studies for In Vitro Biological Activity of Two New Water-Soluble Bis(thio)carbohydrazones and Their Copper(II) and Zinc(II) Complexes” (International Journal of Molecular Sciences, 2024) can be followed below.

Several values for one entry are separate records, joined by “and”; a condition that tells them apart may be missing. Equal entries are not always repeated. Where two headings read alike, the source gives them in different places.

A short description of series [1]: Proton dissociation constants by UV-visible spectrophotometry. It is filed as physicochemical. To be noted: aqueous buffer solutions. From the text:
The proton dissociation constants of Na2H4L^1·5.5 H2O (bis-TCH) were studied by registering the UV–visible spectra in aqueous solution between pH 3.98 and 10.00 (Figure 1A).
Between pH = 3.98 and 6.00, the solutions were colourless with absorption maxima at 237 and 320 nm. From pH = 6.49, the solution was pale green, and the colour became more intense until pH = 10.00; the colour change was accompanied by the appearance of bands at 253 and 393 nm, with a shoulder at 445 nm. […] This value is similar to that reported for the deprotonation of the phenolic moiety of sodium 5-sulfonate-salicylaldehyde thiosemicarbazones. The values of pKa1 and pKa2, associated with the proton dissociation of the sulfonic groups, are expected to have much lower values (below 3) and could not be determined from these experiments. Potentiometric titrations were performed in an attempt to determine the value of the pKa of the hydrazidic NH protons (pKa5 and pKa6) and, possibly, those of the protonated sulfonate groups. Effectively, potentiometric data allowed us to determine the pKa5 value, along with pKa3 and pKa4 (Table 2). The values of pKa3 and pKa4 obtained by potentiometry are consistent with those obtained by spectrophotometric titrations.
Similarly, the proton dissociation constants of bis-CH were studied spectrophotometrically in aqueous solution between pH = 3.98 and 10.00 (Figure 1B). […] The spectrophotometric data were processed by means of HypSpec2014 software, leading to pKa3 = 7.34(1) and pKa4 = 8.58(1), which were assigned to the deprotonation of the two phenolic OH groups (Table 2). As for bis-TCH, the single-site pKa value of the phenolic groups can be estimated as the average pKa (7.96). Additionally, to complete the analysis, we carried out potentiometric titrations of bis-CH starting from a very acidic pH. […] Importantly, no dissociation of the hydrazidic NH groups was observed, a behaviour consistent with that reported in the literature.
The UV–visible spectra were collected using a Thermo Scientific Evolution 260 Bio spectrophotometer equipped with a Peltier temperature controller. Aqueous buffer stock solutions (50 mM) were prepared as follows: acetate buffer solutions (pH = 3.98, 4.62, and 5.00) were prepared by mixing appropriate volumes of AcOH 50 mM and AcONa·3H2O 50 mM solutions. MES (pH = 5.51, 6.00, and 6.49), HEPES (pH = 7.00, 7.48, and 8.01) and CHES (pH = 8.62, 9.01, 9.51, and 10.00) buffer solutions were obtained by suspending appropriate amounts of solid MES/HEPES/CHES in water, adding aqueous NaOH 100 mM until the desired pH was reached. The pH was measured using a Crison Basic 20 pH meter connected with a Hamilton glass electrode. Calibration of the glass electrode was carried out daily. All solutions were prepared using double-distilled water. For all the solutions, the ionic strength was 0.1 M NaCl.
Samples used for the study of protonation equilibria of the ligands were prepared as follows. […] For each solution, the absorption spectrum was collected in the 220–600 nm range at 298.2 K. The spectral data collection was carried out immediately after the preparation of the samples and repeated after 3 and 10 min for all the samples at different pH values to check the stability of the ligand. […] The complex formation equilibria at pH 2.5 or 7.4 of bis-TCH and bis-CH with Cu(II) and Zn(II) ions were studied by direct spectrophotometric titrations of solutions of the ligands with the metal ions, and the samples were prepared as follows. Appropriate aliquots of the stock solutions of the ligands were diluted in a quartz cuvette of 1 cm path length using HEPES buffer (pH 7.4) or by adding HCl aqueous solution (pH 2.5) to obtain ca. 17 µM ligand solutions in a total volume of 2.6 mL. […]

A further series relates to U937 cells. As to the kind of experiment: Antiproliferative activity, trypan blue cell count, U937. It is filed as cell-based. To be noted: for GI50: Homo sapiens, U-937, U937, 72 h. On the procedure:
We have started to investigate the antiproliferative profile of the ligands and of the complexes C1–C4 using a normal fibroblast cell line (Hs27) and a leukaemia cell line (U937), an in vitro cell model system systematically used to validate the toxicological profile of new potential anticancer agents. For the cytotoxicity assay, we treated Hs27 and U937 cells with five different concentrations of compound, ranging from 12.5 to 100 µg/mL, for 24, 48, and 72 h.
U937 cells (ATCC, CRL-1593.2) were obtained from the American Tissue Culture Collection (Rockville, MD, USA) and were cultured in Roswell Park Memorial Institute Medium (RPMI-1640) (Euroclone, Italy); Hs27 cells (ATCC, CRL1634) were grown in DMEM. Both media were supplemented with 10% (v/v) foetal bovine serum (Euroclone, Italy), 1% L-glutamine (2 mM) (Euroclone, Italy), and 1% penicillin (100 U/mL)/streptomycin (100 µg/mL) (Euroclone, Italy), added with 10% (v/v) foetal bovine serum (Euroclone, Italy), 1% L-glutamine (2 mM) (Euroclone, Italy), and 1% penicillin (100 U/mL)/streptomycin (100 µg/mL) (Euroclone, Italy). Flasks were maintained at 37 °C and 5% CO2 in a humidified atmosphere. Cultures media were refreshed every two or three days during sub-culturing.
The antiproliferative activity of the ligands and the complexes C1–C4 was evaluated in vitro on U937 and Hs27 cell lines. In the exponential growth phase, cells were seeded at 5 × 10^4/mL into 12-well flat-bottom microplates. Cells were cultured in complete medium supplemented with 10% FBS, 1% L-glutamine, and 1% penicillin/streptomycin at 37 °C, 5% CO2. After seeding, different concentrations of compounds in the range from 0 to 100 µg/mL in a sterile 1X PBS solution were added to the wells and incubated for 24, 48, and 72 h. A negative control was obtained by treating cells with 1X PBS. To detect whether the treatments caused a defect in cell viability, following 24, 48, and 72 h treatments with the compounds, cells were stained with trypan blue (TB, 0.4%) (Gibco™, Thermofisher Scientific, Waltham, MA, USA). Two independent experiments were performed, and a Bürker chamber was used for cell counts. The GI50 value, i.e., the concentration causing a 50% reduction in the cell number in comparison with control cells, was calculated taking into account the guidelines of the US National Cancer Institute (NCI). Values are reported as the mean of the GI50 calculated on two independent experiments.

Setting [2] is: UV-visible spectrophotometry, aqueous solution, T = 298.2 K, phenolic group, read-out: pKa3.
Where [3] appears, read: UV-visible spectrophotometry, aqueous solution, T = 298.2 K, phenolic group, read-out: pKa4.
[4] abbreviates: average of spectrophotometric pKa3 and pKa4, read-out: single-site pKa value of the phenolic groups (average pKa).

Take `COc1cc(S(=O)(=O)[O-])cc(/C=N/NC(=O)N/N=C/c2cc(S(=O)(=O)[O-])cc(OC)c2O)c1O.[Na+].[Na+]` [bis-CH, Bis-(sodium 3-methoxy-5-sulfonate-salicylaldehyde)-carbohydrazone]: the pKa amounted to 7.34 in series [1] (setting [2]), 8.58 in series [1] (setting [3]) and 7.96 in series [1] (setting [4]). In the series with U937 cells, the concentration for 50% growth inhibition (GI50) (as a rule, the concentration at which growth is held to half of that of the control) was 46.5 µg/mL and 71.8 µM. Besides, the “cytotoxic effect (in words)” value with U937 cells (U937, up to 100 µg/mL, 24-72 h) is recorded as “mild antiproliferative activity”.
Consider `COc1cc(S(=O)(=O)[O-])cc(/C=N/NC(=S)N/N=C/c2cc(S(=O)(=O)[O-])cc(OC)c2O)c1O.[Na+].[Na+]` [bis-TCH, Bis-(sodium 3-methoxy-5-sulfonate-salicylaldehyde)-thiocarbohydrazone], for which the pKa stood at 6.78 in series [1] (setting [2]), 8.77 in series [1] (setting [3]) and 7.78 in series [1] (setting [4]). For the same molecule, the GI50 with U937 cells is 98 µg/mL and 144 µM. Also, in the series on U937 cells (U937, highest dose, 72 h), the “reduction in cell viability” value was 50%.
